Patent US6303603A, “3-oxo-2(H)-1,2,4-triazine derivatives as ligands of 5 HT1A receptors” (Pierre Fabre Medicament, priority 1997, dated 2001)
Where a name gives a salt, the structure may show the parent alone. Read-outs that look alike come from different tables or passages of the source.

Legend:
5-HT1A [1] = target: T1, 5-HT1A (Rattus norvegicus, UniProt P19327); assay: Serotoninergic (5-HT) syndrome; format: in vivo, male rat (Sprague-Dawley); design: carried out with the male rat (Sprague-Dawley); from tissue; host or cells: whole living rat (in vivo); settings: po, male rat
T1 sequence (P19327 1-422): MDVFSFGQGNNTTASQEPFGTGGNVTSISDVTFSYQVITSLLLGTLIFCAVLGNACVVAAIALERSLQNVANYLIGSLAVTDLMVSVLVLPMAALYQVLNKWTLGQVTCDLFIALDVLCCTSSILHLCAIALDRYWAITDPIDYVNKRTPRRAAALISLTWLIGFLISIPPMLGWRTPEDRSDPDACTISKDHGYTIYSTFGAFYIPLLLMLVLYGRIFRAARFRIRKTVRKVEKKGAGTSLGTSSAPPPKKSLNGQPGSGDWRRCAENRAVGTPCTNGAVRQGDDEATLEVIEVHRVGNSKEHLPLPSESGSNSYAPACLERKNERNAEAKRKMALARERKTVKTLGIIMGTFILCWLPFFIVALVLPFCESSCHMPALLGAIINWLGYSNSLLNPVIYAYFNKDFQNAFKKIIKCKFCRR
Description: The central activity of the compounds of the invention was evaluated by their ability to provoke the 5-HT syndrome, which is characterized by:
an alternating bending and stretching of the forepaws (reciprocal fore-paw treading: FPT)
the retraction of the lower lip (lower lip on: LLR)
a position or the ventral surface of the animal is incobtact with the ground and the hind paws extended (flat body posture: FBP).
The experiments on the evaluation of the 5-HT syndrome are carried out with the male rat (Sprague-Dawley) according to the technique described by F. C. Colpaert et al. (Drug. Dev. Res, 26, 21-48, 1992) and M. S. Kleven et al. (J.P.E.T., 282, 747-759, 1997).

5-HT1A [2] = target: T1, 5-HT1A; assay: Binding to the 5-HT1A receptor (displacement of [3H]8-OH-DPAT); design: Brains from male Sprague-Dawley 180-200 g rats; tissue Iffa Credo, France (animals); host or cells: rat brain cortex; species or system rat (male Sprague-Dawley), brain cortex; settings: for Ki: read-out: pKi 5-HT1A (converted)
Description: (§1) Binding to the 5-HT1A, D2 dopaminergic and α1-adrenergic receptors:
(§2) Brains from male Sprague-Dawley 180-200 g rats [Ico: OFA SD (I.O.P.S. Caw); Iffa Credo, France], maintained at -70° C., were used in all the studies.
(§3) The affinity of the products for the various receptors was determined by displacement of radioactive ligands under the conditions summarized in Table 1.
(§4) The reaction is halted by rapid filtration, under vacuum, through Whatman GF/B filters and the tubes are rinsed with 2×5 ml of Tris-HCl 50 mM, pH 7.4, buffer at 25° C. The radioactivity collected on the filter is analyzed by liquid scintillation after addition of 4 ml of liquid scintillant (Emulsifier Safe, Packard). All the experiments are carried out in triplicate.
(§5) The inhibition constants (Ki) of the products are estimated from the displacement experimentations by using the EBDA (equilibrium binding data analysis) Radlig version 4 nonlinear regression program (Biosoft, Cambridge, UK; McPherson, 1985).
(§6) The pKi (-log Ki) values are given in the form of the mean ± SEM of at least 3 experimentations (Table 2).

α1-adrenergic receptor = assay: Binding to the α1-adrenergic receptor (displacement of [3H]Prazosin); design: species or system rat (male Sprague-Dawley), brain cortex; settings: rat cortex, 30 min, 23 °C, mean of at least 3 experimentations
Description: as §1, §2, §3, §4, §5, §6
Experimental conditions for binding to the receptors
[^3 H] ligand Incubation binding
Concen- Tissue Temper- Concen-
Binding KD tration Concen- Time ature tration
site (nM) (nM) Type tration (min) (° C.) Product (μM)
Buffers: (A) Tris HCl 50 mM pH 7.4, pargyline 10 μM, CaCl2 4 mM,
0.1% ascorbic acid; (B) Tris HCl 50 mM pH 7.4, NaCl 120 mM, KCl 5 mM; (C)

D2 dopaminergic receptor = target: T2, D2 dopaminergic receptor (Rattus norvegicus, UniProt P61169); assay: Binding to the D2 dopaminergic receptor (displacement of [3H]YM-09151-2); design: species or system rat (male Sprague-Dawley), brain striatum; settings: read-out: pKi D2 (converted)
T2 construct: Brains from male Sprague-Dawley 180-200 g rats; tissue Iffa Credo, France (animals); host or cells: rat brain striatum
Description: as §1, §2, §3, §4, §5, §6

[3] = Antidepressant activity: forced swimming test; format: in vivo; settings: po, percentage of animals with significant decrease vs control (p<0.05), read-out: ED50 (decrease in the immobility time)
[4] = flat body posture (FBP), read-out: 5-HT syndrome ED50 FBP
[5] = lower lip retraction (LLR), read-out: 5-HT syndrome ED50 LLR
[6] = reciprocal fore-paw treading (FPT), read-out: 5-HT syndrome ED50 FPT

T2 sequence (P61169 whole entry): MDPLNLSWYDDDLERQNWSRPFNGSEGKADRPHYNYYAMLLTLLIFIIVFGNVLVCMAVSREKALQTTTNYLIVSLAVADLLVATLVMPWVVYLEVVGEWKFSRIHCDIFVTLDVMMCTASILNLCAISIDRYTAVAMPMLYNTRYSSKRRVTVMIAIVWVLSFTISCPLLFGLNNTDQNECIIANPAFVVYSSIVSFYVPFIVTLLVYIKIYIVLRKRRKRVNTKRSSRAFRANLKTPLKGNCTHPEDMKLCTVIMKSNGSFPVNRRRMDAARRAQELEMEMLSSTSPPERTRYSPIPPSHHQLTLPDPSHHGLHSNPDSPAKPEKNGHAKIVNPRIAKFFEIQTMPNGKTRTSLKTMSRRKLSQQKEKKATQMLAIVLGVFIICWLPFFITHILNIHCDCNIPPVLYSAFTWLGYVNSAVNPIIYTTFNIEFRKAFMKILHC

Row | Molecule | 5-HT syndrome ED50 FBP (5-HT1A [1]; flat body posture (FBP)) [mg/kg] | 5-HT syndrome ED50 LLR (5-HT1A [1]; lower lip retraction (LLR)) [mg/kg] | 5-HT syndrome ED50 FPT (5-HT1A [1]; reciprocal fore-paw treading (FPT)) [mg/kg] | pKi 5-HT1A (5-HT1A [2]; [3H]8-OH-DPAT, rat cortex, 30 min, 23 °C, mean of at least 3 experimentations) | pKi α1 (α1-adrenergic receptor) | Ki (D2 dopaminergic receptor) [nM] | ED50 [3] [mg/kg] | ED50 (5-HT1A [1]; [4]) [mg/kg] | ED50 (5-HT1A [1]; [5]) [mg/kg] | ED50 (5-HT1A [1]; [6]) [mg/kg] | Ki (5-HT1A [2]) [nM]
1 | 5-[4-[4-(5-Chloro-2-methoxyphenyl)-piperazin-1-yl]butoxy]-2-methyl-2H- [1,2,4]triazin-3-one fumarate [Compound 17] | 0.31 | 0.08 | 0.31 | 9.89 | – | – | – | – | – | – | –
2 | Cn1ncc(OCC[C@H]2CC[C@@H]3CN(c4ncccn4)CCN3C2)nc1=O (relative stereo) [Compound 24, trans-2-Methyl-5-[2-(2-pyrimidin-2-yl-octahydropyrido[1,2-a]pyrazin-7-yl)ethoxy]-2H-[1,2,4]triazin-3-one] | – | – | – | – | 6.35 | 2880 | 0.04 | 0.08 | < 0.04 | 0.08 | 0.525
3 | Cn1ncc(OCC[C@H]2CC[C@@H]3CN(c4ncccn4)CCN3C2)nc1=O (single isomer, unassigned) [Compound 26] | – | – | – | – | – | – | 0.04 | < 0.04 | < 0.04 | 0.04 | 0.245
4 | O=C1CC2(CCCC2)CC(=O)N1CCCCN1CCN(c2ncccn2)CC1 [Buspirone, reference compound] | – | – | – | – | 6.19 | – | > 160 | – | – | > 40 | –
5 | Cn1ncc(OCCCCN2CCN(c3ncccn3)CC2)nc1=O [Compound 1, 2-Methyl-5-[4-(4-pyrimidin-2-yl-piperazin-1-yl)butoxy]-2H-[1,2,4]triazin-3-one] | – | – | – | – | 6.25 | 1580 | – | 0.08 | 0.02 | 0.08 | 0.676
6 | Cc1ccnc(N2CCN(CCCCOc3cnn(C)c(=O)n3)CC2)n1.O=C(O)/C=C/C(=O)O [Compound 2, 2-Methyl-5-[4-[4-(4-methylpyrimidin-2-yl)piperazin-1-yl]butoxy]-2H-[1,2,4]triazin-3-one fumarate] | – | – | – | – | 6.11 | 1740 | 0.04 | 0.08 | 0.02 | 0.08 | 0.269
7 | Cc1cc(C)nc(N2CCN(CCCCOc3cnn(C)c(=O)n3)CC2)n1.O=C(O)/C=C/C(=O)O [Compound 3, 5-[4-[4-(4,6-Dimethylpyrimidin-2-yl)piperazin-1-yl]butoxy]-2-methyl-2H-[1,2,4]triazin-3-one fumarate] | – | – | – | – | 6.01 | 1120 | – | 0.08 | 0.08 | 0.08 | 0.275
8 | COc1ccnc(N2CCN(CCCCOc3cnn(C)c(=O)n3)CC2)n1 [Compound 4, 5-[4-[4-(4-Methoxypyrimnidin-2-yl)piperazin-1-yl]butoxy]-2-methyl-2H-[1,2,4]triazin-3-one fumarate] | – | – | – | – | 6.74 | 2240 | – | 0.08 | < 0.04 | 0.08 | 0.138
9 | Cn1ncc(OCCCCN2CCN(c3nccc(Cl)n3)CC2)nc1=O [Compound 6, 5-[4-[4-(4-Chloropyrimidin-2-yl)piperazin-1-yl]butoxy]-2-methyl-2H-[1,2,4]triazin-3-one] | – | – | – | – | 6.25 | 1700 | 0.63 | 0.08 | 0.08 | 0.08 | 0.209
10 | Cn1ncc(OCCCCN2CCN(c3ncc(F)cn3)CC2)nc1=O [Compound 7, 5-[4-[4-(5-Fluoropyrimidin-2-yl)piperazin-1-yl]butoxy]-2-methyl-2H-[1,2,4]triazin-3-one] | – | – | – | – | – | – | – | 0.31 | 0.08 | 0.31 | 0.912
11 | COc1cccnc1N1CCN(CCCCOc2cnn(C)c(=O)n2)CC1 [Compound 15, 5-[4-[4-(3-Methoxypyridin-2-yl)piperazin-1-yl]butoxy]-2-methyl-2H-[1,2,4]triazin-3-one fumarate] | – | – | – | – | – | – | – | – | – | – | 0.263
12 | Cn1ncc(OCCCCN2CCN(c3cccc(Cl)c3)CC2)nc1=O [Compound 16, 5-[4-[4-(3-Chlorophenyl)piperazin-1-yl]Butoxy]-2-methyl-2H-[1,2,4]Triazin-3-one fumarate] | – | – | – | – | – | – | – | – | – | – | 0.0759
13 | COc1ccc(Cl)cc1N1CCN(CCCCOc2cnn(C)c(=O)n2)CC1 [Compound 19, 5-[4-[4-(5-Chloro-2-methoxyphenyl)-piperazin-1-yl]butoxyl-2-methyl-2H-[1,2,4]triazin-3-one fumarate] | – | – | – | – | 8.21 | 15.1 | – | – | – | – | 0.309
14 | Cn1ncc(OCCCCNCC2COc3ccccc3O2)nc1=O (stereo not shown) [Compound 20, 5-[4-((2,3-Dihydrobenzo[1,4]dioxin-2-ylmethyl)amino]butoxyl-2-methyl-2H-[1,2,4]triazin-3-one fumarate] | – | – | – | – | 7.65 | 66.1 | – | 0.08 | < 0.04 | 0.31 | 0.107
15 | Cn1ncc(OCCCCNC[C@@H]2COc3ccccc3O2)nc1=O [Compound 21, (R)-5-[4-[(2,3-Dihydrobenzo[1,4]dioxin-2-ylmethyl)amino]butoxy)-2-methyl-2H-[1,2,4]triazin-3-one fumarate] | – | – | – | – | – | – | – | – | – | – | 0.331
16 | Cn1ncc(OCCCCNC[C@H]2COc3ccccc3O2)nc1=O [Compound 22, (S)-5-[4-[(2,3-Dihydrobenzo[1,4]dioxin-2-ylmethyl)amino]butoxy]-2-methyl-2H-[1,2,4]triazin-3-one fumarate] | – | – | – | – | – | – | – | – | – | – | 0.0339
17 | O=C(NCCN1CCN(c2cccc3c2OC[C@H](CO)O3)CC1)c1ccc(F)cc1 [Flesinoxan, reference compound] | – | – | – | – | 6.50 | – | 1.25 | – | – | – | –
